What was measured:
Type in all cases: functional
Pseudomonas aeruginosa [1] = assay: Antibacterial activity against Pseudomonas aeruginosa assessed as growth inhibition at 100 ug/mL after 24 to 48 hr by cup-plate method; conditions: read-out: DIZ
Pseudomonas aeruginosa [2] = assay: Antibacterial activity against Pseudomonas aeruginosa assessed as growth inhibition at 50 ug/mL after 24 to 48 hr by cup-plate method; conditions: read-out: DIZ
Escherichia coli [3] = assay: Antibacterial activity against Escherichia coli assessed as growth inhibition at 100 ug/mL after 24 to 48 hr by cup-plate method; conditions: read-out: DIZ
Mus musculus [4] = assay: Analgesic activity in Swiss albino Mus musculus (mouse) assessed as latency time of heat-induced paw licking/jumping behaviour at 10 mg/kg after 0.5 hr by Eddy's hot plate method (reference value: 4.17 +/- 0.04 secs)
Rattus norvegicus [5] = assay: Anti-inflammatory activity in Wistar albino Rattus norvegicus (rat) assessed as inhibition of carrageenan-induced paw edema at 10 mg/kg, po administered 30 min prior to carrageenan challenge measured after 1.5 hr by plethysmometric analysis relative to untreated control
Aspergillus niger [6] = assay: Antifungal activity against Aspergillus niger assessed as growth inhibition at 50 ug/mL after 24 hr by cup-plate method; conditions: read-out: DIZ
Rattus norvegicus [7] = assay: Anti-inflammatory activity in Wistar albino Rattus norvegicus (rat) assessed as inhibition of carrageenan-induced paw edema at 10 mg/kg, po administered 30 min prior to carrageenan challenge measured after 1 hr by plethysmometric analysis relative to untreated control
Staphylococcus aureus [8] = assay: Antibacterial activity against Staphylococcus aureus assessed as growth inhibition at 50 ug/mL after 24 to 48 hr by cup-plate method; conditions: read-out: DIZ
Rattus norvegicus [9] = assay: Anti-inflammatory activity in Wistar albino Rattus norvegicus (rat) assessed as inhibition of carrageenan-induced paw edema at 10 mg/kg, po administered 30 min prior to carrageenan challenge measured after 0.5 hr by plethysmometric analysis relative to untreated control
Mus musculus [10] = assay: Analgesic activity in Swiss albino Mus musculus (mouse) assessed as latency time of heat-induced paw licking/jumping behaviour at 10 mg/kg after 1 hr by Eddy's hot plate method (reference value: 4.74 +/- 0.21 secs)
Bacillus subtilis [11] = assay: Antibacterial activity against Bacillus subtilis assessed as growth inhibition at 100 ug/mL after 24 to 48 hr by cup-plate method; conditions: read-out: DIZ
Rattus norvegicus [12] = assay: Anti-inflammatory activity in Wistar albino Rattus norvegicus (rat) assessed as inhibition of carrageenan-induced paw edema at 10 mg/kg, po administered 30 min prior to carrageenan challenge measured after 2 hr by plethysmometric analysis relative to untreated control
Staphylococcus aureus [13] = assay: Antibacterial activity against Staphylococcus aureus assessed as growth inhibition at 100 ug/mL after 24 to 48 hr by cup-plate method; conditions: read-out: DIZ
Mus musculus [14] = assay: Analgesic activity in Swiss albino Mus musculus (mouse) assessed as latency time of heat-induced paw licking/jumping behaviour at 10 mg/kg after 4 hr by Eddy's hot plate method (reference value: 4.57 +/- 0.11 secs)
Rattus norvegicus [15] = assay: Anti-inflammatory activity in Wistar albino Rattus norvegicus (rat) assessed as inhibition of carrageenan-induced paw edema at 10 mg/kg, po administered 30 min prior to carrageenan challenge measured after 3 hr by plethysmometric analysis relative to untreated control
Candida albicans [16] = assay: Antifungal activity against Candida albicans assessed as growth inhibition at 50 ug/mL after 24 hr by cup-plate method; conditions: read-out: DIZ
Mus musculus [17] = assay: Analgesic activity in Swiss albino Mus musculus (mouse) assessed as latency time of heat-induced paw licking/jumping behaviour at 10 mg/kg after 2 hr by Eddy's hot plate method (reference value: 4.86 +/- 0.18 secs)
Escherichia coli [18] = assay: Antibacterial activity against Escherichia coli assessed as growth inhibition at 50 ug/mL after 24 to 48 hr by cup-plate method; conditions: read-out: DIZ
Aspergillus niger [19] = assay: Antifungal activity against Aspergillus niger assessed as growth inhibition at 100 ug/mL after 24 hr by cup-plate method; conditions: read-out: DIZ
Bacillus subtilis [20] = assay: Antibacterial activity against Bacillus subtilis assessed as growth inhibition at 50 ug/mL after 24 to 48 hr by cup-plate method; conditions: read-out: DIZ
Candida albicans [21] = assay: Antifungal activity against Candida albicans assessed as growth inhibition at 100 ug/mL after 24 hr by cup-plate method; conditions: read-out: DIZ

SMILES	zone of inhibition at 100 µg/mL (Pseudomonas aeruginosa [1])	zone of inhibition at 50 µg/mL (Pseudomonas aeruginosa [2])	zone of inhibition at 100 µg/mL (Escherichia coli [3])	Time (Mus musculus [4])	inhibition in vivo at 10 mg/kg (Rattus norvegicus [5])	zone of inhibition at 50 µg/mL (Aspergillus niger [6])	inhibition in vivo at 10 mg/kg (Rattus norvegicus [7])	zone of inhibition at 50 µg/mL (Staphylococcus aureus [8])	inhibition in vivo at 10 mg/kg (Rattus norvegicus [9])	Time (Mus musculus [10])	zone of inhibition at 100 µg/mL (Bacillus subtilis [11])	inhibition in vivo at 10 mg/kg (Rattus norvegicus [12])	zone of inhibition at 100 µg/mL (Staphylococcus aureus [13])	Time (Mus musculus [14])	inhibition in vivo at 10 mg/kg (Rattus norvegicus [15])	zone of inhibition at 50 µg/mL (Candida albicans [16])	Time (Mus musculus [17])	zone of inhibition at 50 µg/mL (Escherichia coli [18])	zone of inhibition at 100 µg/mL (Aspergillus niger [19])	zone of inhibition at 50 µg/mL (Bacillus subtilis [20])	further results
COc1ccc(F)cc1-c1cccc(-c2nn(CCO)c(=O)o2)c1	20 mm	18 mm	19 mm	4.96 s	53%	9 mm	41%	14 mm	28%	4.36 s	18 mm	69%	16 mm	5.59 s	75%	4 mm	6.88 s	18 mm	10 mm	13 mm	zone of inhibition at 100 µg/mL (Candida albicans [21]): 8 mm
COC(=O)CCCn1nc(-c2cccc(-c3cc(F)ccc3OC)c2)oc1=O	14 mm	11 mm	18 mm	5.51 s	61%	11 mm	45%	11 mm	31%	5.84 s	13 mm	74%	18 mm	7.28 s	87%	11 mm	7.81 s	10 mm	16 mm	10 mm	zone of inhibition at 100 µg/mL (Candida albicans [21]): 17 mm
COc1ccc(F)cc1-c1cccc(-c2n[nH]c(=O)o2)c1	13 mm	10 mm	14 mm	4.22 s	49%	15 mm	41%	9 mm	25%	4.74 s	12 mm	56%	13 mm	6.35 s	71%	12 mm	7.41 s	8 mm	28 mm	8 mm	zone of inhibition at 100 µg/mL (Candida albicans [21]): 21 mm

— ChEMBL document CHEMBL3046957, “Synthesis of new oxadiazole derivatives as anti-inflammatory, analgesic, and antimicrobial agents” (2013)
